{
  "source": "patent US20240350522A1",
  "about": "“HYGROMYCIN A FOR TREATMENT OF DISEASES AND INFECTIONS” (FLIGHTPATH BIOSCIENCES, INC., priority 2021, published 2024)",
  "key": {"[1]": {"test_system": "F. nucleatum animalis", "experiment": "Kirby-Bauer diffusion assay", "format": "cell-based, Fusobacterium nucleatum", "conditions": "for zone of inhibition at 40 µg/disc / zone of inhibition at 5 µg/disc / zone of inhibition at 10 µg/disc / zone of inhibition at 20 µg/disc: Fusobacterium nucleatum, mean (SEM), read-out: size of zone inhibition (mm); for zone of inhibition at 40 µg/disc: Hyg A 40 μg per disc; for zone of inhibition at 5 µg/disc: Hyg A 5 μg per disc; for zone of inhibition at 10 µg/disc: Hyg A 10 μg per disc; for zone of inhibition at 20 µg/disc: Hyg A 20 μg per disc", "procedure": "Three representatives of 6 subspecies of Fusobacterium nucleatum (F. nucleatum) for a total of 18 strains were tested in the experiment. The sub species and strains are described in Table 2.\nAll strains were verified by 16S V3/V6 sequence analysis prior to use. The methods described herein were performed in an anaerobic chamber at 37° C. All media and plates were degassed prior to use.\nHygromycin A (Hyg A) discs were prepared by solubilizing Hyg A in distilled water and sterile filtered. Clindamycin was used as a positive control. Defined amounts of hygromycin A (40, 20, 10 or 5 micrograms), clindamycin (2 micrograms) or sterile distilled water were absorbed onto Kirby-Bauer discs in a biosafety cabinet.\nAn overnight culture was grown in Wilkins-Chalgren (WC) broth and back-diluted 1:10 in fresh broth. When an OD 600 reading reached 0.5, 300 μL of the log phase culture was plated onto WC agar plates. The plates were sectioned into quadrants and a Kirby-Bauer (KB) disc impregnated with a defined amount of hygromycin A was placed in each quadrant. Plates were prepared thus in triplicate and the four amounts of hygromycin A were 40, 20 10 and 5 micrograms. The same volume of culture was spread on fourth plate sectioned into six sections for three positive and three negative controls. KB discs with water served as negative controls and KB discs impregnated with 2 micrograms of clindamycin served as positive controls. […] Table 3, Table 4, Table 5, Table 6, Table 7, Table 8 show the mean size of zone inhibitions for each of the subspecies tested using increasing concentrations of hygromycin A where the standard error of mean is represented in parenthesis.\nThe amount of hygromycin A was plotted against the size of the zone of inhibition for each strain tested."}, "[2]": {"test_system": "Treponema pallidum pallidum Chicago strain", "experiment": "T. pallidum susceptibility assay, co-culture with Sf1Ep cells, tp0574 (T47) qPCR after 7 days", "format": "cell-based", "conditions": "for Mean T47 copies/μL, Avg. / Mean T47 copies/μL, experimental values: 7 days; for Mean T47 copies/μL, Avg.: average of 8 replicates; for Mean T47 copies/μL, experimental values: replicate wells"}, "[3]": {"test_system": "Treponema pallidum pallidum SS14 strain", "experiment": "T. pallidum susceptibility assay, co-culture with Sf1Ep cells, tp0574 (T47) qPCR after 7 days", "format": "cell-based", "conditions": "for Mean T47 copies/μL, Average / Mean T47 copies/μL, experimental values: 7 days; for Mean T47 copies/μL, Average: average of 8 replicates; for Mean T47 copies/μL, experimental values: replicate wells"}, "[4]": {"test_system": "Porphyromonas gingivalis (ATCC 33277)", "experiment": "MIC of Hyg A against P. gingivalis (OD600, dark field microscopy)", "format": "cell-based"}},
  "note": "Where “and” joins values, the source holds several entries; their conditions need not be identical. Identical values can stand only once. Like-named read-outs stand apart in the source and are kept apart here.",
  "data": [
    {"smiles": "CC(=O)[C@H]1O[C@@H](Oc2ccc(/C=C(\\C)C(=O)N[C@@H]3[C@H](O)[C@@H](O)[C@H]4OCO[C@H]4[C@@H]3O)cc2O)[C@@H](O)[C@@H]1O", "note": "[Hyg A, Hygromycin A]", "values": [
      {"measurement": "zone of inhibition at 40 µg/disc", "setting": "[1]; strain 7_1", "value": 24.3, "unit": "mm"},
      {"measurement": "zone of inhibition at 5 µg/disc", "setting": "[1]; strain 218A8", "value": 19.7, "unit": "mm"},
      {"measurement": "zone of inhibition at 10 µg/disc", "setting": "[1]; strain 218A8", "value": 21.7, "unit": "mm"},
      {"measurement": "zone of inhibition at 20 µg/disc", "setting": "[1]; strain 218A8", "value": 29.7, "unit": "mm"},
      {"measurement": "zone of inhibition at 40 µg/disc", "setting": "[1]; strain 218A8, 42 mm = assigned maximum", "value": 42, "unit": "mm"},
      {"measurement": "zone of inhibition at 5 µg/disc", "setting": "[1]; strain CRC 7_3 JVN3C1", "value": 0, "unit": "mm"},
      {"measurement": "zone of inhibition at 10 µg/disc", "setting": "[1]; strain CRC 7_3 JVN3C1", "value": 0, "unit": "mm"},
      {"measurement": "zone of inhibition at 20 µg/disc", "setting": "[1]; strain CRC 7_3 JVN3C1", "value": 0, "unit": "mm"},
      {"measurement": "zone of inhibition at 40 µg/disc", "setting": "[1]; strain CRC 7_3 JVN3C1", "value": 0, "unit": "mm"},
      {"measurement": "strain sensitivity in words", "setting": "[1]; strain CRC 7_3JVN3C1, 5-40 μg discs", "value": "fully resistant"},
      {"measurement": "lowest concentration effective against growth (no significant difference to higher concentrations)", "setting": "[2]; Chicago strain, ANOVA p<0.05", "value": 0.12, "unit": "µg/mL"},
      {"measurement": "Mean T47 copies/μL, Avg.", "setting": "[2]; Hyg A 0.03 μg/ml", "value": 7184, "unit": "copies/μL"},
      {"measurement": "Mean T47 copies/μL, experimental values", "setting": "[2]; Hyg A 0.03 μg/ml", "value": "2531 copies/μL and 7304 copies/μL and 8369 copies/μL and 7552 copies/μL and 6189 copies/μL and 9263 copies/μL and 8429 copies/μL and 7834 copies/μL"},
      {"measurement": "Mean T47 copies/μL, Avg.", "setting": "[2]; Hyg A 0.06 μg/ml", "value": 1814, "unit": "copies/μL"},
      {"measurement": "Mean T47 copies/μL, experimental values", "setting": "[2]; Hyg A 0.06 μg/ml", "value": "1336 copies/μL and 1882 copies/μL and 1716 copies/μL and 2225 copies/μL and 1815 copies/μL and 2044 copies/μL and 2022 copies/μL and 1476 copies/μL"},
      {"measurement": "Mean T47 copies/μL, Avg.", "setting": "[2]; Hyg A 0.12 μg/ml", "value": 674, "unit": "copies/μL"},
      {"measurement": "Mean T47 copies/μL, experimental values", "setting": "[2]; Hyg A 0.12 μg/ml", "value": "449 copies/μL and 775 copies/μL and 689 copies/μL and 776 copies/μL and 788 copies/μL and 670 copies/μL and 704 copies/μL and 545 copies/μL"},
      {"measurement": "Mean T47 copies/μL, Avg.", "setting": "[2]; Hyg A 0.24 μg/ml", "value": 576, "unit": "copies/μL"},
      {"measurement": "Mean T47 copies/μL, experimental values", "setting": "[2]; Hyg A 0.24 μg/ml", "value": "360 copies/μL and 447 copies/μL and 513 copies/μL and 890 copies/μL and 775 copies/μL and 636 copies/μL and 565 copies/μL and 424 copies/μL"},
      {"measurement": "Mean T47 copies/μL, Avg.", "setting": "[2]; Hyg A 0.48 μg/ml", "value": 457, "unit": "copies/μL"},
      {"measurement": "Mean T47 copies/μL, experimental values", "setting": "[2]; Hyg A 0.48 μg/ml", "value": "341 copies/μL and 475 copies/μL and 462 copies/μL and 614 copies/μL and 548 copies/μL and 509 copies/μL and 425 copies/μL and 280 copies/μL"},
      {"measurement": "Mean T47 copies/μL, Avg.", "setting": "[2]; Hyg A 0.96 μg/ml", "value": 397, "unit": "copies/μL"},
      {"measurement": "Mean T47 copies/μL, experimental values", "setting": "[2]; Hyg A 0.96 μg/ml", "value": "271 copies/μL and 393 copies/μL and 520 copies/μL and 528 copies/μL and 402 copies/μL and 418 copies/μL and 372 copies/μL and 273 copies/μL"},
      {"measurement": "Mean T47 copies/μL, Avg.", "setting": "[2]; Hyg A 1.92 μg/ml", "value": 451, "unit": "copies/μL"},
      {"measurement": "Mean T47 copies/μL, experimental values", "setting": "[2]; Hyg A 1.92 μg/ml", "value": "301 copies/μL and 422 copies/μL and 453 copies/μL and 556 copies/μL and 585 copies/μL and 546 copies/μL and 464 copies/μL and 279 copies/μL"},
      {"measurement": "Mean T47 copies/μL, Avg.", "setting": "[2]; Hyg A 3.84 μg/ml", "value": 493, "unit": "copies/μL"},
      {"measurement": "Mean T47 copies/μL, experimental values", "setting": "[2]; Hyg A 3.84 μg/ml", "value": "324 copies/μL and 470 copies/μL and 612 copies/μL and 487 copies/μL and 485 copies/μL and 532 copies/μL and 618 copies/μL and 412 copies/μL"},
      {"measurement": "Mean T47 copies/μL, Average", "setting": "[3]; Hyg A 0.03 μg/ml", "value": 2768, "unit": "copies/μL"},
      {"measurement": "Mean T47 copies/μL, Average", "setting": "[3]; Hyg A 0.06 μg/ml", "value": 916, "unit": "copies/μL"},
      {"measurement": "Mean T47 copies/μL, experimental values", "setting": "[3]; Hyg A 0.06 μg/ml", "value": "713 copies/μL and 883 copies/μL and 851 copies/μL and 1260 copies/μL"},
      {"measurement": "Mean T47 copies/μL, Average", "setting": "[3]; Hyg A 0.12 μg/ml", "value": 737, "unit": "copies/μL"},
      {"measurement": "Mean T47 copies/μL, experimental values", "setting": "[3]; Hyg A 0.12 μg/ml", "value": "372 copies/μL and 629 copies/μL and 710 copies/μL and 787 copies/μL and 926 copies/μL and 951 copies/μL and 965 copies/μL and 552 copies/μL"},
      {"measurement": "Mean T47 copies/μL, Average", "setting": "[3]; Hyg A 0.24 μg/ml", "value": 516, "unit": "copies/μL"},
      {"measurement": "Mean T47 copies/μL, experimental values", "setting": "[3]; Hyg A 0.24 μg/ml", "value": "510 copies/μL and 491 copies/μL and 572 copies/μL and 587 copies/μL and 564 copies/μL and 600 copies/μL and 441 copies/μL and 360 copies/μL"},
      {"measurement": "Mean T47 copies/μL, Average", "setting": "[3]; Hyg A 0.48 μg/ml", "value": 426, "unit": "copies/μL"},
      {"measurement": "Mean T47 copies/μL, experimental values", "setting": "[3]; Hyg A 0.48 μg/ml", "value": "327 copies/μL and 435 copies/μL and 503 copies/μL and 508 copies/μL and 487 copies/μL and 453 copies/μL and 342 copies/μL and 352 copies/μL"},
      {"measurement": "Mean T47 copies/μL, Average", "setting": "[3]; Hyg A 0.96 μg/ml", "value": 319, "unit": "copies/μL"},
      {"measurement": "Mean T47 copies/μL, experimental values", "setting": "[3]; Hyg A 0.96 μg/ml", "value": "150 copies/μL and 307 copies/μL and 435 copies/μL and 361 copies/μL and 405 copies/μL and 327 copies/μL and 299 copies/μL and 268 copies/μL"},
      {"measurement": "Mean T47 copies/μL, Average", "setting": "[3]; Hyg A 1.92 μg/ml", "value": 323, "unit": "copies/μL"},
      {"measurement": "Mean T47 copies/μL, Average", "setting": "[3]; Hyg A 3.84 μg/ml", "value": 275, "unit": "copies/μL"},
      {"measurement": "lowest concentration effective against growth (no significant difference to higher concentrations)", "setting": "[3]; SS14 strain, ANOVA p<0.05", "value": 1.92, "unit": "µg/mL"},
      {"measurement": "MIC", "setting": "[4]; ATCC33277, P. gingivalis 33277, experiment 1, read-out: MIC (μg/ml) 1", "value": 5, "unit": "µg/mL"},
      {"measurement": "MIC", "setting": "[4]; ATCC33277, P. gingivalis 33277, experiment 2, read-out: MIC (μg/ml) 2", "value": 5, "unit": "µg/mL"}
    ]}
  ]
}
